We go through 22 compounds from article PMC9919490, “Synthesis and Biological Evaluation of Novel Dispiro-Indolinones with Anticancer Activity” (Molecules, 2023).

Assay type in all cases: cell-based
The subject of one series is HCT^wt cells. Put plainly: MTT cytotoxicity assay, HCT^wt (p53 pos). As to conditions: 48 h. The protocol:
(§1) The synthesized compounds were tested for their ability to block the proliferation of the selected model cell lines: LNCaP (p53+), PC3 (p53-), HCT^wt (p53+), and HCT^−/− (p53-) cells. The assay was carried out using the standard MTT (3-(4,5-dimethylthiazol-2-yl)2,5-diphenyl tetrazolium bromide) assay based on the modified approach reported by Ferrari and colleagues. […] Differences in IC50 values against these cell lines were used to assess the selectivity of the compounds.
(§2) Model cell lines were purchased from the in stock collection of the N.N. Blokhin Russian Cancer Research Center (RAMS). Cells were accurately maintained in the recommended media, supplemented with 10% heat-inactivated FBS (Invitrogen) and 2 mmol/L L-glutamine (Invitrogen).
(§3) First, 4000 cells per well were plated out in 140 µL of DMEM (with 10% FBS) in 96-well plates and incubated in 5% CO2 for 24 h at 37 °C without treatment. […] The cells were treated for 48 h with […] (eight dilutions) concentrations of the substances (each in triplicate) or doxorubicin (0.3 nM–600 nM, eight dilutions) as a control substance. After the incubation, 15 µL of MTT solution in PBS (5 mg/mL) was added, and the cells were incubated for 2 h, followed by removal of the media and addition of 120 µL of DMSO. […] Cell survival rates were determined by the comparison of optical density with the corresponding untreated control cell culture. Dose-dependent curves and the corresponding IC50 values were calculated using “GraphPad Prism 6” software (GraphPad Software, Inc., San Diego, CA, USA).

The subject of the next series is PC3 cells. Put plainly: MTT cytotoxicity assay, PC3 (p53 neg). The protocol: as §1, §2, §3
The subject of a further series is LNCaP cells. Nature of the series: MTT cytotoxicity assay, LNCaP (p53 pos). The settings on record: 48 h. The protocol: as §1, §2, §3
A further series concerns HCT^−/− cells. Nature of the series: MTT cytotoxicity assay, HCT^−/− (p53 neg). The settings on record: 48 h. The protocol:
as §1, §2, §3

The structures appear in SMILES notation.

Take `CCOc1ccc(N2C(=O)[C@]3(NC2=S)[C@@H](c2ccc(F)cc2)CN(C)[C@@]32C(=O)Nc3ccccc32)cc1` (racemic) [Compound 30]: the IC50 in the series with HCT^wt cells, in the series on PC3 cells (48 h), in the series with LNCaP cells and with HCT^−/− cells was over 100 µM throughout.
In the case of `CCOc1ccc(N2C(=O)[C@]3(NC2=S)[C@@H](c2ccc(F)cc2)CN(C)[C@@]32C(=O)Nc3ccc(Br)cc32)cc1` (racemic) [Compound 31], the IC50 in the series with HCT^wt cells, with PC3 cells (48 h), in the series on LNCaP cells and in the series with HCT^−/− cells was over 100 µM throughout.
Regarding `COc1ccc(N2C(=O)[C@]3(NC2=S)[C@@H](c2cccc(Cl)c2)CN(C)[C@@]32C(=O)Nc3ccccc32)cc1` (racemic) [Compound 32], the IC50 in the series on HCT^wt cells, in the series with PC3 cells (48 h), in the series with LNCaP cells and in the series with HCT^−/− cells was over 100 µM throughout.
Regarding `COc1ccc(N2C(=O)[C@]3(NC2=S)[C@@H](c2cccc(Cl)c2)CN(C)[C@@]32C(=O)Nc3ccc(Br)cc32)cc1` (racemic) [Compound 33], the IC50 with HCT^wt cells, in the series with PC3 cells (48 h), with LNCaP cells and with HCT^−/− cells was over 100 µM each time.
`C#CCOc1ccc([C@H]2CN(C)[C@@]3(C(=O)Nc4ccc(Br)cc43)[C@@]23NC(=S)N(c2ccc(OCC)cc2)C3=O)cc1` (racemic) [Compound 34]: the IC50 in the series with HCT^wt cells, in the series on PC3 cells (48 h), in the series on LNCaP cells and in the series with HCT^−/− cells was over 100 µM throughout.
Turning to `CN1C[C@H](c2ccccc2Cl)[C@]2(NC(=S)N(c3ccc(Cl)cc3)C2=O)[C@]12C(=O)Nc1ccc(Cl)cc12` (racemic) [Compound 36], the IC50 in the series on HCT^wt cells, with PC3 cells (48 h), in the series with LNCaP cells and in the series with HCT^−/− cells was over 100 µM each time.
Take `CN1C[C@H](c2ccc(Cl)cc2)[C@]2(NC(=S)N(c3ccc(Cl)cc3)C2=O)[C@]12C(=O)Nc1ccc(Cl)cc12` (racemic) [Compound 37]: the 50% inhibitory concentration (IC50) in the series on HCT^wt cells, in the series on PC3 cells (48 h), with LNCaP cells and with HCT^−/− cells was over 100 µM each time.
Consider `CN1C[C@H](c2ccc(F)cc2)[C@]2(NC(=S)N(c3ccc(Cl)cc3)C2=O)[C@]12C(=O)Nc1ccccc12` (racemic) [Compound 38], for which the IC50 with HCT^wt cells, in the series on PC3 cells (48 h), in the series with LNCaP cells and with HCT^−/− cells was over 100 µM each time.
For the compound `CN1C[C@H](c2ccc(Cl)cc2)[C@]2(NC(=S)N(c3ccc(F)cc3)C2=O)[C@]12C(=O)Nc1ccc(Br)cc12` (racemic) [Compound 40], the IC50 in the series with HCT^wt cells, in the series on PC3 cells (48 h), with LNCaP cells and in the series on HCT^−/− cells was over 100 µM throughout.
Consider `COc1ccc([C@H]2CN(C)[C@@]3(C(=O)Nc4ccccc43)[C@@]23NC(=S)N(c2ccc(F)c(Cl)c2)C3=O)cc1` (racemic) [Compound 41], for which the IC50 in the series on HCT^wt cells, with PC3 cells (48 h), in the series with LNCaP cells and with HCT^−/− cells was over 100 µM throughout.
For `CN1C[C@H](c2ccc(Cl)cc2)[C@]2(NC(=S)N(c3ccc(F)c(Cl)c3)C2=O)[C@]12C(=O)Nc1ccc(Cl)cc12` (racemic) [Compound 42], the IC50 in the series on HCT^wt cells, with PC3 cells (48 h), with LNCaP cells and in the series on HCT^−/− cells was over 100 µM throughout.
With `CN1C[C@H](c2cccc(Cl)c2)[C@]2(NC(=S)N(c3ccc(F)c(Cl)c3)C2=O)[C@]12C(=O)Nc1ccc(Cl)cc12` (racemic) [Compound 43], the IC50 in the series with HCT^wt cells amounted to 9.3 ± 4.6 µM; with PC3 cells (48 h), 5.7 ± 2.6 µM; in the series on LNCaP cells it was 3.2 ± 1.6 µM; with HCT^−/− cells it was 9.5 ± 4.9 µM.
The like results for `COc1ccc([C@H]2CN(C)[C@@]3(C(=O)Nc4ccccc43)[C@@]23NC(=S)N(c2ccc(F)c(Cl)c2)C3=O)cc1OC` (racemic) [Compound 44] were, in that order, 35 ± 16.2 µM, 10.2 ± 2.3 µM, 8.6 ± 1.8 µM and over 100 µM.
For `CCc1ccc([C@H]2CN(C)[C@@]3(C(=O)Nc4ccccc43)[C@@]23NC(=S)N(c2ccc(F)c(Cl)c2)C3=O)cc1` (racemic) [Compound 46], the IC50 in the series on HCT^wt cells was 6.3 ± 2.5 µM; with PC3 cells (48 h) it was over 100 µM; in the series with LNCaP cells, over 100 µM; in the series with HCT^−/− cells, 6.5 ± 3.6 µM.
As for `CN1C[C@H](c2ccc(Cl)cc2)[C@]2(NC(=S)N(c3ccc(O)cc3)C2=O)[C@]12C(=O)Nc1ccc(Cl)cc12` (racemic) [Compound 52], the IC50 in the series on HCT^wt cells, with PC3 cells (48 h), with LNCaP cells and in the series on HCT^−/− cells was over 100 µM in each case.
With `CN1C[C@H](c2ccccc2Cl)[C@]2(NC(=S)N(c3ccc(O)cc3)C2=O)[C@]12C(=O)Nc1ccccc12` (racemic) [Compound 53], the IC50 with HCT^wt cells, in the series on PC3 cells (48 h), in the series with LNCaP cells and in the series on HCT^−/− cells was over 100 µM each time.
In the case of `CN1C[C@H](c2ccccc2Cl)[C@]2(NC(=S)N(c3ccc(O)cc3)C2=O)[C@]12C(=O)Nc1ccc(Cl)cc12` (racemic) [Compound 55], the half-maximal inhibitory concentration (IC50) in the series with HCT^wt cells is over 100 µM; in the series with PC3 cells (48 h) it was 15.1 ± 1.2 µM; in the series with LNCaP cells it was 7 ± 1 µM; in the series with HCT^−/− cells it was over 100 µM.
`COc1ccc([C@H]2CN(C)[C@@]3(C(=O)Nc4ccc(Br)cc43)[C@@]23NC(=S)N(c2ccc(O)cc2)C3=O)cc1OC` (racemic) [Compound 56]: the concentration for half-maximal inhibition (IC50) in the series on HCT^wt cells is over 100 µM; with PC3 cells (48 h), 30 ± 10.5 µM; with LNCaP cells it was 9 ± 2 µM; in the series on HCT^−/− cells, over 100 µM.
`COc1ccc([C@H]2CN(C)[C@@]3(C(=O)Nc4ccc(Cl)cc43)[C@@]23NC(=S)N(c2ccc(O)cc2)C3=O)cc1OC` (racemic) [Compound 57]: the IC50 in the series on HCT^wt cells is over 100 µM; in the series with PC3 cells (48 h), 20 ± 6.9 µM; in the series on LNCaP cells, 17 ± 1 µM; in the series on HCT^−/− cells, over 100 µM.
On to `C#CCOc1ccc(N2C(=O)[C@]3(NC2=S)[C@@H](c2ccc(Cl)cc2)CN(C)[C@@]32C(=O)Nc3ccccc32)cc1` [Compound 35], for which the IC50 with HCT^wt cells was over 100 µM; in the series on PC3 cells (Homo sapiens, PC-3, 48 h), over 100 µM; in the series on LNCaP cells (Homo sapiens, LNCaP), over 100 µM; in the series with HCT^−/− cells, over 100 µM.
Take `COc1ccc(C2CN(C)C3(C(=O)Nc4ccc(Cl)cc43)C23NC(=S)N(c2ccc(Cl)cc2)C3=O)cc1OC` (stereo not shown) [Compound 39, 1-(4-chlorophenyl)-4’-(3,4-dimethoxyphenyl)-1’-methyl-5’’’-chloro-2-thiooxodispiro[imidazolidine-4,3’-pyrrolidine-2’,3”-indoline]-2”,5-dione]: the IC50 in the series on HCT^wt cells, with PC3 cells (48 h), with LNCaP cells and in the series on HCT^−/− cells was over 100 µM throughout.
Take `CN1CC(c2ccc(Cl)cc2)C2(NC(=S)N(c3ccc(O)cc3)C2=O)C12C(=O)Nc1ccccc12` (stereo not shown) [Compound 50, 1-(4-hydroxyphenyl)-4’-(4-chlorophenyl)-1’-methyl-2-thiooxodispiro[imidazolidine-4,3’-pyrrolidine-2’,3”-indoline]-2”,5-dione]: the IC50 was 6.9 ± 3.1 µM with HCT^wt cells, 4.65 ± 2.3 µM in the series with PC3 cells (48 h), 18 ± 4.7 µM with LNCaP cells and over 100 µM in the series on HCT^−/− cells.
